Patent US9371336B2, “Compounds for treating spinal muscular atrophy” (PTC Therapeutics Inc., priority 2012, dated 2016)

How the values were obtained:
[1] = system: SMN2 minigene mRNA (SMN2-A minigene construct); experiment: SMN2 minigene mRNA splicing RT-qPCR assay in cultured cells; format: cell-based, human; details: Homo sapiens, HEK293-H; HEK293H cells stably transfected with SMN2-A minigene, 24 hours, 7-point concentration data; concentration giving 1.5-fold SMN2 full length mRNA relative to vehicle-treated cells; read-out: EC1.5x for production of full length SMN2 mRNA
Experimental: The reverse transcription-quantitative PCR-based (RT-qPCR) assay is used to quantify the level of the full length SMN2 minigene mRNA containing SMN2 exon 7 in a HEK293H cell line stably transfected with said minigene and treated with a test compound.
HEK293H cells stably transfected with the SMN2-A minigene construct described above (10,000 cells/well) are seeded in 200 μL of cell culture medium (DMEM plus 10% FBS, with 200 μg/mL hygromycin) in 96-well flat-bottom plates and the plate is immediately swirled to ensure proper dispersal of cells, forming an even monolayer of cells. Cells are allowed to attach for at least 4-6 hours. Test compounds are serially diluted 3.16-fold in 100% DMSO to generate a 7-point concentration curve. A solution of test compound (1 μL, 200× in DMSO) is added to each cell-containing well and the plate is incubated for 24 hours in a cell culture incubator (37° C., 5% CO2, 100% relative humidity). Two replicates are prepared for each test compound concentration. The cells are then lysed in Cells-To-Ct lysis buffer and the lysate is stored at −80° C.
Primer SMN Forward A (SEQ ID NO. 1) hybridizes to a nucleotide sequence in exon 7 (nucleotide 22 to nucleotide 40), primer SMN Reverse A (SEQ ID NO. 2) hybridizes to a nucleotide sequence in the coding sequence of Firefly luciferase, SMN Probe A (SEQ ID NO. 3) hybridizes to a nucleotide sequence in exon 7 (nucleotide 50 to nucleotide 54) and exon 8 (nucleotide 1 to nucleotide 21). The combination of these three oligonucleotides detects only SMN1 or SMN2 minigenes (RT-qPCR) and will not detect endogenous SMN1 or SMN2 genes.
The SMN forward and reverse primers are used at final concentrations of 0.4 μM. The SMN probe is used at a final concentration of 0.15 μM. The GAPDH primers are used at final concentrations of 0.2 μM and the probe at 0.15 μM.
The SMN2-minigene GAPDH mix (15 μL total volume) is prepared by combining 7.5 μL of 2×RT-PCR buffer, 0.4 μL of 25×RT-PCR enzyme mix, 0.75 μL of 20×GAPDH primer-probe mix, 4.0075 μL of water, 2 μL of 10-fold diluted cell lysate, 0.06 μL of 100 μM SMN forward primer, 0.06 μL of 100 μM SMN reverse primer, and 0.225 μL of 100 μM SMN probe.
PCR is carried out at the following temperatures for the indicated time: Step 1: 48° C. (15 min); Step 2: 95° C. (10 min); Step 3: 95° C. (15 sec); Step 4: 60° C. (1 min); then repeat Steps 3 and 4 for a total of 40 cycles.
Each reaction mixture contains both SMN2-A minigene and GAPDH primers/probe sets (multiplex design), allowing simultaneous measurement of the levels of two transcripts.
Two SMN spliced products are generated from the SMN2 minigene. The first spliced product containing exon 7, corresponding to SMN2 full length mRNA, is referred to herein using the term “SMN2 minigene FL.” The second spliced product lacking exon 7 is referred to herein using the term “SMN2 minigene Δ7.”
The increase of SMN2 minigene FL mRNA relative to that in cells treated with vehicle control is determined from real-time PCR data using a modified ΔΔCt method (as described in Livak and Schmittgen, Methods, 2001, 25:402-8). The amplification efficiency (E) is calculated from the slope of the amplification curve for SMN2 minigene FL and GAPDH individually. The abundances of SMN2 minigene FL and GAPDH are then calculated as (1+E)^−Ct, where Ct is the threshold value for each amplicon. The abundance of SMN2 minigene FL is normalized to GAPDH abundance. The normalized SMN2 minigene FL abundance from test compound-treated samples is then divided by normalized SMN2 minigene FL abundance from vehicle-treated cells to determine the level of SMN2 FL mRNA relative to vehicle control.

Smn protein = Smn protein assay (HTRF) in cultured cells (SMA patient fibroblasts GM03813); format: cell-based, human; details: 48 hours; for maximum fold (Fold) increase of Smn protein: SMA patient fibroblast cells, 7-point concentration curve, relative to vehicle control; for EC1.5x for Smn protein expression: SMA patient fibroblast cells (GM03813), HTRF, 7-point concentration data, concentration producing 1.5 times Smn protein vs DMSO vehicle control
Experimental: The Smn HTRF (homogeneous time resolved fluorescence) assay is used to quantify the level of Smn protein in SMA patient fibroblast cells treated with test compounds.
Cells are thawed and cultured in DMEM-10% FBS for 72 hours. Cells are trypsinized, counted and re-suspended to a concentration of 25,000 cells/mL in DMEM-10% FBS. The cell suspension is plated at 5,000 cells per well in a 96 well microtiter plate and incubated for 3 to 5 hours. […] Test compounds are serially diluted 3.16-fold in 100% DMSO to generate a 7-point concentration curve. 1 μL of test compound solution is transferred to cell-containing wells and cells are incubated for 48 hours in a cell culture incubator (37° C., 5% CO2, 100% relative humidity). Triplicate samples are set up for each test compound concentration. After 48 hours, the supernatant is removed from the wells and 25 μL of the RIPA lysis buffer, containing protease inhibitors, is added to the wells and incubated with shaking at room temperature for 1 hour. 25 μL of the diluent is added and then 35 μL of the resulting lysate is transferred to a 384-well plate, where each well contains 5 μL of the antibody solution (1:100 dilution of anti-SMN d2 and anti-SMN kryptate in SMN reconstitution buffer). The plate is centrifuged for 1 minute to bring the solution to the bottom of the wells, then incubated overnight at room temperature. Fluorescence for each well of the plate at 665 nm and 620 nm is measured on an EnVision multilabel plate reader (Perkin-Elmer).
The normalized fluorescence signal is calculated for each sample, Blank and vehicle control well by dividing the signal at 665 nm by the signal at 620 nm. Normalizing the signal accounts for possible fluorescence quenching due to the matrix effect of the lysate. The ΔF value (a measurement of Smn protein abundance as a percent value) for each sample well is calculated by subtracting the normalized average fluorescence for the Blank control wells from the normalized fluorescence for each sample well, then dividing this difference by the normalized average fluorescence for the Blank control wells and multiplying the resulting value by 100. The ΔF value for each sample well represents the Smn protein abundance from test compound-treated samples. The ΔF value for each sample well is divided by the ΔF value for the vehicle control wells to calculate the fold increase in Smn protein abundance relative to the vehicle control.

| Compound | EC (1.5-fold) [1] | maximum fold (Fold) increase of Smn protein (Smn protein) | EC1.5x for Smn protein expression (Smn protein) |
| --- | --- | --- | --- |
| CN1CCN(c2cc3oc(=O)c(-c4nc5ccccc5s4)cc3cn2)CC1 [Cpd 14, 3-(1,3-benzothiazol-2-yl)-7-(4-methylpiperazin-1-yl)-2H-pyrano[3,2-c]pyridin-2-one] | 3 to 30 µM | * (A maximum fold increase ≦1.2 is indicated by one star (*)) | – |
| Cc1cn2cc(-c3cc4cnc(N5CCNCC5)cc4oc3=O)nc2s1.Cl [Cpd 41, 3-(2-methylimidazo[2,1-b][1,3]thiazol-6-yl)-7-(piperazin-1-yl)-2H-pyrano[3,2-c]pyridin-2-one hydrochloride] | 0.3 to 1 µM | ** (a fold increase between >1.2 and ≦1.35 is indicated by two stars (**)) | – |
| Cc1ccn2cc(-c3cc4cnc(N5CCNCC5)cc4oc3=O)nc2c1.Cl [Cpd 40, 3-(7-methylimidazo[1,2-a]pyridin-2-yl)-7-(piperazin-1-yl)-2H-pyrano[3,2-c]pyridin-2-one hydrochloride] | 0.3 to 1 µM | ** (a fold increase between >1.2 and ≦1.35 is indicated by two stars (**)) | – |
| Cc1cc(F)c2nc(-c3cc4ccc(N5C[C@@H]6C[C@H]5CN6)nc4oc3=O)cn2c1 [Cpd 136, 7-[(1S,4S)-2,5-diazabicyclo[2.2.1]hept-2-yl]-3-(8-fluoro-6-methylimidazo[1,2-a]pyridin-2-yl)-2H-pyrano[2,3-b]pyridin-2-one] | ≤ 0.1 µM | *** (a fold increase between >1.35 and ≦1.5 is indicated by three stars (***)) | *** (an EC1.5× between >0.3 μM and ≦1 μM is indicated by three stars (***)) |
| Cc1ccn2cc(-c3cc4cnc(N5CCN(C)CC5)cc4oc3=O)nc2c1 [Cpd 57, 3-(7-methylimidazo[1,2-a]pyridin-2-yl)-7-(4-methylpiperazin-1-yl)-2H-pyrano[3,2-c]pyridin-2-one] | 0.3 to 1 µM | ** (a fold increase between >1.2 and ≦1.35 is indicated by two stars (**)) | – |
| Cc1ccc2nc(-c3cc4cnc(N5CCNCC5)cc4oc3=O)cn2c1 [Cpd 33, 3-(6-methylimidazo[1,2-a]pyridin-2-yl)-7-(piperazin-1-yl)-2H-pyrano[3,2-c]pyridin-2-one] | 1 to 3 µM | *** (a fold increase between >1.35 and ≦1.5 is indicated by three stars (***)) | * (An EC1.5× for Smn protein expression between >3 μM and ≦10 μM is indicated by one star (*)) |
| Cc1ccc2nc(-c3cc4ccc(N5CCN[C@@H](C)C5)nc4oc3=O)cn2c1 [Cpd 72, 3-(6-methylimidazo[1,2-a]pyridin-2-yl)-7-[(3S)-3-methylpiperazin-1-yl]-2H-pyrano[2,3-b]pyridin-2-one] | ≤ 0.1 µM | **** (a fold increase between >1.5 and ≦1.65 is indicated by four stars (****)) | **** (an EC1.5×≦0.3 μM is indicated by four stars (****)) |
| Cc1ccc2nc(-c3cc4ccc(N5C[C@H](C)N(C)C[C@H]5C)nc4oc3=O)cn2c1 [Cpd 93, 3-(6-methylimidazo[1,2-a]pyridin-2-yl)-7-[(2R,5S)-2,4,5-trimethylpiperazin-1-yl]-2H-pyrano[2,3-b]pyridin-2-one] | 0.3 to 1 µM | *** (a fold increase between >1.35 and ≦1.5 is indicated by three stars (***)) | – |
| Cc1ccc2nc(-c3cc4ccc(N5CCN[C@H](C)C5)nc4oc3=O)cn2c1 [Cpd 73, 3-(6-methylimidazo[1,2-a]pyridin-2-yl)-7-[(3R)-3-methylpiperazin-1-yl]-2H-pyrano[2,3-b]pyridin-2-one] | 0.1 to 0.3 µM | *** (a fold increase between >1.35 and ≦1.5 is indicated by three stars (***)) | ** (an EC1.5× between >1 and ≦3 μM is indicated by two stars (**)) |
| Cc1cn2cc(-c3cc4ccc(N5C[C@@H]6C[C@H]5CN6)nc4oc3=O)nc2c(C)n1 [Cpd 135] | ≤ 0.1 µM | ***** (a fold increase >1.65 is indicated by five stars (*****)) | *** (an EC1.5× between >0.3 μM and ≦1 μM is indicated by three stars (***)) |
| Cc1ccn2nc(-c3cc4ccc(N5CCNCC5)nc4oc3=O)cc2c1.Cl [Cpd 43, 3-(5-methylpyrazolo[1,5-a]pyridin-2-yl)-7-(piperazin-1-yl)-2H-pyrano[2,3-b]pyridin-2-one hydrochloride] | 0.1 to 0.3 µM | **** (a fold increase between >1.5 and ≦1.65 is indicated by four stars (****)) | **** (an EC1.5×≦0.3 μM is indicated by four stars (****)) |
| Cc1cc(Cl)c2nc(-c3cc4cnc(N5CCNCC5)cc4oc3=O)cn2c1.Cl [Cpd 35, 3-(8-chloro-6-methylimidazo[1,2-a]pyridin-2-yl)-7-(piperazin-1-yl)-2H-pyrano[3,2-c]pyridin-2-one hydrochloride] | 3 to 30 µM | ** (a fold increase between >1.2 and ≦1.35 is indicated by two stars (**)) | – |
